The values below come from ChEMBL document CHEMBL5465560, “Selectivity Literature for EUbOPEN Chemogenomic Library” (2024).

Assay [1] deals with SRSF protein kinase 3 (Homo sapiens) (UniProt Q9UPE1). Nature of the assay: Selectivity interaction (Upstate Kinase Profiler service (Millipore)) EUB0000056c SRPK3. The following applies: at 1 µM.
Assay [2] addresses Calcium/calmodulin-dependent protein kinase kinase 1 (Homo sapiens) (UniProt Q8N5S9). Nature of the assay: Selectivity interaction (ProQinase) EUB0000171b CAMKK1.
In assay [3] the target is T1, Serine/threonine-protein kinase ULK2 (Homo sapiens) (UniProt Q8IYT8).
T1 sequence (whole entry): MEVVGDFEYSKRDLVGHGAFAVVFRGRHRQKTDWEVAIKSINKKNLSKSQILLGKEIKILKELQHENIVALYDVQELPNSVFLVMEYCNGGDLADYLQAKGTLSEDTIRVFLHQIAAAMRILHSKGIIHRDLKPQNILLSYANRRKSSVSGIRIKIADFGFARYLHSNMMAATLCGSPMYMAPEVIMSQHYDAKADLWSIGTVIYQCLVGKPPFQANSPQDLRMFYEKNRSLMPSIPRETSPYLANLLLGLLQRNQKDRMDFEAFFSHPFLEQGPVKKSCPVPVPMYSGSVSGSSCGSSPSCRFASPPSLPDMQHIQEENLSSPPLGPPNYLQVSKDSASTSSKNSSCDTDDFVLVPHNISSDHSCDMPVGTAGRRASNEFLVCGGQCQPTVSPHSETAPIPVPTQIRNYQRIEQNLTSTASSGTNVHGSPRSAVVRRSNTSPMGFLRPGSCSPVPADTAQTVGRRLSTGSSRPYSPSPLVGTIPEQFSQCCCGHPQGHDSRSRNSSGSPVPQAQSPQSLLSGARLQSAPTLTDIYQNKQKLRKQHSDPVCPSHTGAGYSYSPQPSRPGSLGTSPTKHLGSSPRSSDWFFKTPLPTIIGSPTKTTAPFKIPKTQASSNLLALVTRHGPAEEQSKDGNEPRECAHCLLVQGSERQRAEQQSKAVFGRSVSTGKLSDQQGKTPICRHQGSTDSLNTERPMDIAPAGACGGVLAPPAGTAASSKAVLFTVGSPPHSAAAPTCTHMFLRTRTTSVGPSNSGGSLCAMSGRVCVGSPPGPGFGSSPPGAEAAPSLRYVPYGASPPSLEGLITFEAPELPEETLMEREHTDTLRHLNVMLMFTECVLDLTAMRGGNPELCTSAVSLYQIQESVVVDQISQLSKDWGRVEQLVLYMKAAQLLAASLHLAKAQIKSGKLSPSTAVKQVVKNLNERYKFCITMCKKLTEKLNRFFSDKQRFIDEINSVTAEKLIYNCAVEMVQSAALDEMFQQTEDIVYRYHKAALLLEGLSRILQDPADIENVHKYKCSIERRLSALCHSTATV
The following applies: at 10 µM.

The target in assay [4] is T2, Serine/threonine-protein kinase 4 (Homo sapiens) (UniProt Q13043).
T2 sequence (whole entry): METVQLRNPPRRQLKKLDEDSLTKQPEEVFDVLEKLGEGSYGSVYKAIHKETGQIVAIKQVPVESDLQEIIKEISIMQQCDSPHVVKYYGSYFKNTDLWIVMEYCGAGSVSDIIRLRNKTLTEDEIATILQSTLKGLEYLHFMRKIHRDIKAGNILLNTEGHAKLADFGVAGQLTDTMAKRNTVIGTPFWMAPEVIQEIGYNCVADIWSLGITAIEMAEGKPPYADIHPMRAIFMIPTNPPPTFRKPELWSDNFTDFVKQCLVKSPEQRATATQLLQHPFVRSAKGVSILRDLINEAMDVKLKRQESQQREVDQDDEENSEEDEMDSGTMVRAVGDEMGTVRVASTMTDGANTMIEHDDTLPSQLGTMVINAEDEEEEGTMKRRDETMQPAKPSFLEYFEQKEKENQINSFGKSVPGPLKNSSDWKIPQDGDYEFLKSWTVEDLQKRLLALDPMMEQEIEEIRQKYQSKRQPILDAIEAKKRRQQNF
Nature of the assay: Selectivity interaction (KinomeScan (DiscoverX)) EUB0001079a STK4. The note with it: at 1 µM.

The target of assay [5] is MAP kinase-interacting serine/threonine-protein kinase 1 (Homo sapiens) (UniProt Q9BUB5). Nature of the assay: Selectivity interaction (KinomeScan (DiscoverX)) EUB0000045b MKNK1.
Assay [6] concerns the target Calcium/calmodulin-dependent protein kinase type II subunit beta (Homo sapiens) (UniProt Q13554). Put plainly: Selectivity interaction (KinomeScan (DiscoverX)) EUB0000045b CAMK2B.
Assay [7] has as its target Mitogen-activated protein kinase kinase kinase 10 (Homo sapiens) (UniProt Q02779). Put plainly: Selectivity interaction (KinomeScan (DiscoverX)) EUB0000666a MAP3K10. The note with it: at 10 µM.
Assay [8] has as its target STE20-like serine/threonine-protein kinase (Homo sapiens, UniProt Q9H2G2). Put plainly: Selectivity interaction (KinomeScan (DiscoverX)) EUB0000607a SLK. The note with it: at 10 µM.
Assay [9] concerns the target Tyrosine-protein kinase ABL2 (Homo sapiens, UniProt P42684). Nature of the assay: Selectivity interaction (KinomeScan (DiscoverX)) EUB0000607a ABL2. The note with it: at 10 µM.
Assay [10] deals with Ribosomal protein S6 kinase alpha-1 (Homo sapiens, UniProt Q15418). Put plainly: Selectivity interaction (ActivX KiNativ screen (kinase selectivity in THP-1 cell lysates)) EUB0000639a RPS6KA1. It is filed as subcellular. The note with it: lysate, at 5 µM.
Assay [11] has as its target T3, Tyrosine-protein kinase Tec (Homo sapiens) (UniProt P42680).
T3 sequence (whole entry): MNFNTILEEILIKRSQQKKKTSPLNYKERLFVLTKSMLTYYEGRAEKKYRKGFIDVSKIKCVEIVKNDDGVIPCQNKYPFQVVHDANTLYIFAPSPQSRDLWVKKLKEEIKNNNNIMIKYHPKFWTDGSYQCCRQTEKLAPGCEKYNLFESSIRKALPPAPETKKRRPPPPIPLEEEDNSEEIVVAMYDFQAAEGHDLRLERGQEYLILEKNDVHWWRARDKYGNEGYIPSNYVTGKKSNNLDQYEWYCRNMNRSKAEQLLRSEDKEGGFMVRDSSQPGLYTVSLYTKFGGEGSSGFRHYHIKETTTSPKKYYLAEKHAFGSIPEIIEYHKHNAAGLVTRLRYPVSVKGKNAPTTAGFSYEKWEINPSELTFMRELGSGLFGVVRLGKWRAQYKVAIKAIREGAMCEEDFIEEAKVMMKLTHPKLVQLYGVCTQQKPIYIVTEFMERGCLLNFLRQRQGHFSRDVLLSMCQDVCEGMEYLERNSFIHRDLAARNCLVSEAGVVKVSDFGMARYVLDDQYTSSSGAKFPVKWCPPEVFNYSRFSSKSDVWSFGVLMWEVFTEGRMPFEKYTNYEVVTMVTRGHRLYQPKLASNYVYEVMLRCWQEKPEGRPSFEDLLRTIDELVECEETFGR
Nature of the assay: Selectivity interaction (KinomeScan (DiscoverX)) EUB0000229b TEC. The following applies: at 10 µM.

Sequence of MAP kinase-interacting serine/threonine-protein kinase 1 (Homo sapiens) (Q9BUB5 whole entry, looked up): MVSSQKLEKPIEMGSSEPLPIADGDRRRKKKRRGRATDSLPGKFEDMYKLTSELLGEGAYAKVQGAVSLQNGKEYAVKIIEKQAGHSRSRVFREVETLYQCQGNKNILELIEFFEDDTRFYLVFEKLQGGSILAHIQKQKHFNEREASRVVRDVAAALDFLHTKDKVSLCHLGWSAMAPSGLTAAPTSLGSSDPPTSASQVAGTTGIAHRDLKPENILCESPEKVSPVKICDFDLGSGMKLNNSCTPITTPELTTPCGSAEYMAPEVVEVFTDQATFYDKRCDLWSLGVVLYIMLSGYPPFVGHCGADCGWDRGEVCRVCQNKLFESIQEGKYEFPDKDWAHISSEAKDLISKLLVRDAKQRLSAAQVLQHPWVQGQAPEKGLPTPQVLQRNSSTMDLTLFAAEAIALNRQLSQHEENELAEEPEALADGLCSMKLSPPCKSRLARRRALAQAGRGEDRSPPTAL
Sequence of Calcium/calmodulin-dependent protein kinase kinase 1 (Homo sapiens) (Q8N5S9 whole entry, looked up): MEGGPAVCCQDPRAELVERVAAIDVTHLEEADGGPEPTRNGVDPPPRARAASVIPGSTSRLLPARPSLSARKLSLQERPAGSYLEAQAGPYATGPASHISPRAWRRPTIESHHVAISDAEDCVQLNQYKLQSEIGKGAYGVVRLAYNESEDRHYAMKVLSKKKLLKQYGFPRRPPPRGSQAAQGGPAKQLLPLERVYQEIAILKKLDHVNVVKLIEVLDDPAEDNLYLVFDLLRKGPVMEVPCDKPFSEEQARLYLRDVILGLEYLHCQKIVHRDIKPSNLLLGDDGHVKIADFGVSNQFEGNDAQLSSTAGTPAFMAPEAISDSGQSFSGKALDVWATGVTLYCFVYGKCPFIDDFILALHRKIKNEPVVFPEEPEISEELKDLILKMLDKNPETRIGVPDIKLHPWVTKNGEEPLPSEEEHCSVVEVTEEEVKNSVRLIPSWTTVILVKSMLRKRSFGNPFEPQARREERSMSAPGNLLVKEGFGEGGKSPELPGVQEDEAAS
Sequence of Calcium/calmodulin-dependent protein kinase type II subunit beta (Homo sapiens) (Q13554 whole entry): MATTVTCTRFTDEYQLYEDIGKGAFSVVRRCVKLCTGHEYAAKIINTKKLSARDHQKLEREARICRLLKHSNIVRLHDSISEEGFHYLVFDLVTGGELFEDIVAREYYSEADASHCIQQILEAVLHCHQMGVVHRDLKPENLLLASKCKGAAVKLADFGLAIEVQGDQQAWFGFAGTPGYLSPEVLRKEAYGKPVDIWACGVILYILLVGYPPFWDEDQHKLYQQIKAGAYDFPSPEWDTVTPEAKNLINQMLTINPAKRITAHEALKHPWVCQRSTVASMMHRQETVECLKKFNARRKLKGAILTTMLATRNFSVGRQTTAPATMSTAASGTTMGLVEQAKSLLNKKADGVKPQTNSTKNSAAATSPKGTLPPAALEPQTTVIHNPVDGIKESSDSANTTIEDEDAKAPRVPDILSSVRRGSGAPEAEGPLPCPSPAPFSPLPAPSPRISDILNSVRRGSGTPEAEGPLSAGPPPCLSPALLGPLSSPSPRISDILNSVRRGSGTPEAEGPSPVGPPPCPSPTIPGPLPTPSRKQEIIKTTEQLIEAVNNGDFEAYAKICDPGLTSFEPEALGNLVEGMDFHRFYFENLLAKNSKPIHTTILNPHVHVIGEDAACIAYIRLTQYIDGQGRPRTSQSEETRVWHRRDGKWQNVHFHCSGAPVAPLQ
Sequence of SRSF protein kinase 3 (Homo sapiens) (Q9UPE1 whole entry): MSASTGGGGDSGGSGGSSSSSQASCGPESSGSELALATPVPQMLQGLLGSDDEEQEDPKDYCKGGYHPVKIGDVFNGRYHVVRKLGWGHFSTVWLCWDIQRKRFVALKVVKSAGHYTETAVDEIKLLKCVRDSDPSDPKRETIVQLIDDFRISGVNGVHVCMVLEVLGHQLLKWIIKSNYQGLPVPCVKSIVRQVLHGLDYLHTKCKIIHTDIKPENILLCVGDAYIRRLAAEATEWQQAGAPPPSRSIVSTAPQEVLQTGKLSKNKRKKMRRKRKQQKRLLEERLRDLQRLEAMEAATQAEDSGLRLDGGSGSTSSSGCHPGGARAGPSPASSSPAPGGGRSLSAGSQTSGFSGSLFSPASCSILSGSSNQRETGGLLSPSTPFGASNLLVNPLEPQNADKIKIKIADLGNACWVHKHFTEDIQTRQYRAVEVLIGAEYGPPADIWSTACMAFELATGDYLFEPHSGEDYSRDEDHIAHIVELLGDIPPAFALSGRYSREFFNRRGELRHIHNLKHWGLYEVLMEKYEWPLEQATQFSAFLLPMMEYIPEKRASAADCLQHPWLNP
Sequence of STE20-like serine/threonine-protein kinase (Q9H2G2 whole entry, looked up): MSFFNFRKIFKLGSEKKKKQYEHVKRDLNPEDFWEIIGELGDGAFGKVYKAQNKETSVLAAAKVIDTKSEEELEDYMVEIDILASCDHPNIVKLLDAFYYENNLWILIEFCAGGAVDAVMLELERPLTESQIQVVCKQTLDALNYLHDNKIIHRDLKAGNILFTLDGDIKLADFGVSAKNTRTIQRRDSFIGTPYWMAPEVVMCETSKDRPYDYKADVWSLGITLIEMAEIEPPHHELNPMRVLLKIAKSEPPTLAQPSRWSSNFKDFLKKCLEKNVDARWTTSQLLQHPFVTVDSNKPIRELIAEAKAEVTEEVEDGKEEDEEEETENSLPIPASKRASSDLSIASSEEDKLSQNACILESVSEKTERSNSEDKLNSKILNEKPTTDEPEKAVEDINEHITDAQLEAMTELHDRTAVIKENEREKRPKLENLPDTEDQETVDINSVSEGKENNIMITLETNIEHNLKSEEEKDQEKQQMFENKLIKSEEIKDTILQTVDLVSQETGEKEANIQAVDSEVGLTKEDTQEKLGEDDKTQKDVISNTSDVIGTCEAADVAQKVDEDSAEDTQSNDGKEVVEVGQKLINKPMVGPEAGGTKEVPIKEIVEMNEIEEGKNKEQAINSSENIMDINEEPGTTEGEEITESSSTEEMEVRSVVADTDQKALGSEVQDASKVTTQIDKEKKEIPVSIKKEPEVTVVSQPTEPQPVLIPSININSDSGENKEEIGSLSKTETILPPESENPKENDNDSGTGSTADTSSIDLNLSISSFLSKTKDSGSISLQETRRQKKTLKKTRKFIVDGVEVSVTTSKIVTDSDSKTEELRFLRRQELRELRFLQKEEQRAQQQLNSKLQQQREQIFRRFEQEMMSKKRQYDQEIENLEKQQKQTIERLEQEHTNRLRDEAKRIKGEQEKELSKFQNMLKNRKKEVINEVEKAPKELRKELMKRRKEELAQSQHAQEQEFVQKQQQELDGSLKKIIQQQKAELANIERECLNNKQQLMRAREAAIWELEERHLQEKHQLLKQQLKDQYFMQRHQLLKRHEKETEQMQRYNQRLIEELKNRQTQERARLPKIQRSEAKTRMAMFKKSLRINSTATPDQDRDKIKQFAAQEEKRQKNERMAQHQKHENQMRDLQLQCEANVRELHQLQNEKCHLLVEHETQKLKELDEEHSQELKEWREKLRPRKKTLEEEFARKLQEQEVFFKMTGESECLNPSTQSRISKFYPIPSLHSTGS
Sequence of Mitogen-activated protein kinase kinase kinase 10 (Homo sapiens) (Q02779 whole entry, looked up): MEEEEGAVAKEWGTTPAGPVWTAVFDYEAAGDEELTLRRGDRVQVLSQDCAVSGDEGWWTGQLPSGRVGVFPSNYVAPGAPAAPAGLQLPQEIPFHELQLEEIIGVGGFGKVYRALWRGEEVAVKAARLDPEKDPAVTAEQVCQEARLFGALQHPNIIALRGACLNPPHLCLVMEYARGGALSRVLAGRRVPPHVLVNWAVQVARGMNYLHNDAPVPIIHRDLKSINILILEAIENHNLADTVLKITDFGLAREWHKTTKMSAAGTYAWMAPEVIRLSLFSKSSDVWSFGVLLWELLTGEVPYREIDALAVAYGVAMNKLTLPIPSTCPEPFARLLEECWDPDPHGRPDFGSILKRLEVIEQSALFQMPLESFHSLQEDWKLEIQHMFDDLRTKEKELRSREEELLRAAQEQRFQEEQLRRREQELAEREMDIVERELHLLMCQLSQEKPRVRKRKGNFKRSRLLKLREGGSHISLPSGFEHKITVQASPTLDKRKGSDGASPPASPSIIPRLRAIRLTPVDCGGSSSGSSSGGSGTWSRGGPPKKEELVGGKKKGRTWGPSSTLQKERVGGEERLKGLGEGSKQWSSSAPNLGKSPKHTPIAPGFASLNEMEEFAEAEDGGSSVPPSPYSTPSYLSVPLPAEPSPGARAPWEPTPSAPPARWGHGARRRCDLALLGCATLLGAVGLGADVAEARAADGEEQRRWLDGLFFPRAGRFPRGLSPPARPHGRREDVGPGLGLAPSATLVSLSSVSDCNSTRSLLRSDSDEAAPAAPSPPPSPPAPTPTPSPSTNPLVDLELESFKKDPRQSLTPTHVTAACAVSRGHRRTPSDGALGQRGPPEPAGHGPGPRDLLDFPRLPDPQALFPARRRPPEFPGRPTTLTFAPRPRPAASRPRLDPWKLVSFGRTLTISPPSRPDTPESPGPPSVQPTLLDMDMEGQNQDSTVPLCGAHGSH

With `Cc1ccc(-c2ccc3c(ccc4sc5c(c43)NC[C@@H](C)NC5=O)n2)cn1`, the % of inhibition in assay [1] amounted to 36%.

As to `C=CC(=O)Nc1cccc(C(=O)Nc2ccc(Nc3cc(-c4[nH]c(SC)nc4C)ccn3)cc2)c1`, the % of control in assay [2] (at 1 µM) was determined as 98%; in [2] (at 5 µM), 108%. `Cc1cc([C@@H](C)Nc2ccccc2C(=O)O)c2nc(N3CCOCC3)cc(=O)n2c1` [AZD-6482] showed a % of control in [3] of 100%. In assay [4], `Nc1cnc(N2CCc3cc(S(=O)(=O)Nc4c(F)cc(Cl)cc4F)cc(N4CCCC4=O)c32)nc1` [TP-020n] came in with a % of control of 100%. As to `C=CC(=O)Nc1cc(-n2c(=O)ccc3cnc4ccc(-c5ccc(NS(C)(=O)=O)cc5)cc4c32)ccc1C`, the % of control in [5] (at 1 µM) came to 100%; in [5] (at 10 µM), 100%; in assay [6] (at 1 µM), 100%; in [6] (at 10 µM), 74%. The compound `O=C(NOC[C@H](O)CO)c1ccc(F)c(F)c1Nc1ccc(I)cc1F` had a % of control in [7] of 100%. `CNC(=O)Nc1ccc(-c2nc(N3CC4CCC(C3)O4)c3cnn(C4CCC5(CC4)OCCO5)c3n2)cc1`: the % of control in assay [8] came to 100%; in assay [9], 84%. In the case of `CC[C@@H]1[C@H](F)C(=O)N[C@@H]1COc1nccc2cc(C(N)=O)c(OC)cc12` [ZIMLOVISERTIB], in [10], the % of inhibition is -38%. Turning to `COc1cc(N(C)c2ccnc3ccc(C(F)(F)F)cc23)cc(OC)c1OC`, in [11], the % binding was 98%.
